We go through 29 molecules from the supplement of paper PMC7695840.

Usually IC50 stands for the concentration needed to halve the response being measured. A lower IC50 goes with greater potency in that assay.

Each structure is given as a SMILES string. “And” between values parts separate entries of the source, which are not always exact repeats. Equal entries are not always repeated. Structures can show the parent of a compound that is named as a salt.

Experiment [1] relates to Staphylococcus aureus MW2 delta-mecA (mecA-). In words: IC50 (growth, competition assay). The note with it: cefoxitin: subinhibitory. In short, it runs like this:
(§1)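 Pre-induced, 1:1-mixed fluorescent S. aureus MW2 mecA+ and ΔmecA strains were grown 20 h at 37 °C, 90% humidity, unshaken, in LB with a daily-set subinhibitory cefoxitin dose, in 1536-well plates. Compounds were given on five- or nine-point 2-fold gradients, in two dye-swapped replicates. DsRed (540/590) and GFP (485/520) were scaled per plate between single-strain control medians, with No Treatment then set to 0.5. Per-strain IC50 was the dose halving the No Treatment signal, or the maximal signal.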

Experiment [2] concerns Staphylococcus aureus MW2 (mecA+). In words: IC50 (growth, competition assay). As to conditions: cefoxitin: subinhibitory. In short, it runs like this:
as §1

In the case of `CC1(C)S[C@@H]2[C@H](NC(=O)C(C(=O)O)c3ccccc3)C(=O)N2[C@H]1C(=O)O` (stereo partly specified) [Carbenicillin disodium], the IC50 in experiment [1] (fluorescent label: DsRed) is less than 9.85 µM; in experiment [1] (fluorescent label: GFP), less than 9.85 µM; in experiment [2] (fluorescent label: DsRed), 20.8 µM; in experiment [2] (fluorescent label: GFP), 42.1 µM.

As to `CCCCC[C@H](CC(=O)NO)C(=O)N[C@H](C(=O)N1CCC[C@H]1CO)C(C)C` [ACTINONIN], the IC50 in experiment [1] (fluorescent label: DsRed) was less than 9.85 µM; in experiment [1] (fluorescent label: GFP) it was less than 9.85 µM; in experiment [2] (fluorescent label: DsRed), 27.8 µM; in experiment [2] (fluorescent label: GFP) it was 37.7 µM.

On to `Cc1oc(=O)oc1CN1CCN(c2cc3c(cc2F)c(=O)c(C(=O)O)c2n3C(C)S2)CC1` (stereo unspecified) [QUISNON], for which the half-maximal inhibitory concentration (IC50) in experiment [1] (fluorescent label: DsRed), in experiment [1] (fluorescent label: GFP), in experiment [2] (fluorescent label: DsRed) and in experiment [2] (fluorescent label: GFP) was less than 9.85 µM in each case.

Regarding `CCCCCCCCCCCCCCCCC(C(=O)O)C(O)(CC(=O)O)C(=O)O` (stereo unspecified) [AGARIC ACID], the 50% inhibitory concentration (IC50) in experiment [1] (fluorescent label: DsRed) was less than 9.85 µM; in experiment [1] (fluorescent label: GFP), less than 9.85 µM; in experiment [2] (fluorescent label: DsRed), 12.8 µM; in experiment [2] (fluorescent label: GFP) it was 20.6 µM.

With `COC(=O)c1c(OC)cc2c(c1C)Oc1c(Cl)c(O)c(Cl)c(C)c1C(=O)O2` [GANGALEOIDIN], the concentration for half-maximal inhibition (IC50) in experiment [1] (fluorescent label: DsRed) was 38.3 µM; in experiment [1] (fluorescent label: GFP) it was less than 9.85 µM; in experiment [2] (fluorescent label: DsRed), less than 9.85 µM; in experiment [2] (fluorescent label: GFP), 62.4 µM.

As for `CC(C)(C)c1cc(/C=C(\C#N)C(N)=S)cc(C(C)(C)C)c1O` [Tyrphostin AG 879 (AG 879)], the 50% inhibitory concentration (IC50) was less than 9.85 µM in experiment [1] (fluorescent label: DsRed), less than 9.85 µM in experiment [1] (fluorescent label: GFP), less than 9.85 µM in experiment [2] (fluorescent label: DsRed) and 14 µM in experiment [2] (fluorescent label: GFP).

Turning to `O=c1c(O)c(-c2ccc(O)c(O)c2)oc2cc(O)cc(O)c12` [Quercetin dihydrate], the IC50 in experiment [1] (fluorescent label: DsRed) was found to be 18.4 µM; in experiment [1] (fluorescent label: GFP), 10.4 µM; in experiment [2] (fluorescent label: DsRed) it was 56.9 µM; in experiment [2] (fluorescent label: GFP), 55.7 µM.

Regarding `CCn1cc(C(=O)O)c(=O)c2cnc(N3CCNCC3)nc21` [PIPEDAC], the IC50 in experiment [1] (fluorescent label: DsRed) was determined as 64.9 µM; in experiment [1] (fluorescent label: GFP) it was 36.5 µM; in experiment [2] (fluorescent label: DsRed) it was 38 µM; in experiment [2] (fluorescent label: GFP) it was 60.4 µM.

On to `c1ccc2c(CCNc3ccc(Nc4ccncc4)cc3)c[nH]c2c1`, for which the IC50 in experiment [1] (fluorescent label: DsRed) was 61 µM; in experiment [1] (fluorescent label: GFP), 37.1 µM; in experiment [2] (fluorescent label: DsRed) it was 104 µM; in experiment [2] (fluorescent label: GFP), 138 µM.

For `C[C@H](Cc1ccc(O)c(O)c1)[C@@H](C)Cc1ccc(O)c(O)c1`, the half-maximal inhibitory concentration (IC50) in experiment [1] (fluorescent label: DsRed) was less than 9.85 µM; in experiment [1] (fluorescent label: GFP), less than 9.85 µM; in experiment [2] (fluorescent label: DsRed), 33.4 µM; in experiment [2] (fluorescent label: GFP), 57.9 µM.

Take `COc1c(N2C[C@@H]3CCCN[C@@H]3C2)c(F)cc2c(=O)c(C(=O)O)cn(C3CC3)c12` [Moxifloxacin hydrochloride]: the IC50 in experiment [1] (fluorescent label: DsRed), in experiment [1] (fluorescent label: GFP), in experiment [2] (fluorescent label: DsRed) and in experiment [2] (fluorescent label: GFP) was less than 0.498 µM throughout.

For the molecule `Cc1cc(F)c(Nc2ncnc3cc(OCc4ccccc4)ccc23)cc1O`, the IC50 was 139 µM in experiment [1] (fluorescent label: DsRed), more than 150 µM in experiment [1] (fluorescent label: GFP), more than 150 µM in experiment [2] (fluorescent label: DsRed) and 138 µM in experiment [2] (fluorescent label: GFP).

Regarding `O=C(N[C@@H](Cc1ccccc1)C(=O)CCl)OCc1ccccc1` [Z-L-Phe chloromethyl ketone], the IC50 in experiment [1] (fluorescent label: DsRed), in experiment [1] (fluorescent label: GFP), in experiment [2] (fluorescent label: DsRed) and in experiment [2] (fluorescent label: GFP) was less than 9.85 µM throughout.

Regarding `C=CCCCCCCCCCCCc1ccco1` [AVOCADENOFURAN], the 50% inhibitory concentration (IC50) was 16.1 µM in experiment [1] (fluorescent label: DsRed), less than 9.85 µM in experiment [1] (fluorescent label: GFP), 48.4 µM in experiment [2] (fluorescent label: DsRed) and 80.9 µM in experiment [2] (fluorescent label: GFP).

Consider `CCCCCCCCCCCCCCCC(=O)OC(CC(=O)O)C[N+](C)(C)C` (racemic) [Palmitoyl-DL-Carnitine chloride], for which the IC50 was less than 9.85 µM in experiment [1] (fluorescent label: DsRed), less than 9.85 µM in experiment [1] (fluorescent label: GFP), 12.1 µM in experiment [2] (fluorescent label: DsRed) and 14.3 µM in experiment [2] (fluorescent label: GFP).

For the molecule `N=C(NCCCCCCNC(=N)NC(=N)Nc1ccc(Cl)cc1)NC(=N)Nc1ccc(Cl)cc1` [LISIUM], the half-inhibitory concentration (IC50) in experiment [1] (fluorescent label: DsRed), in experiment [1] (fluorescent label: GFP), in experiment [2] (fluorescent label: DsRed) and in experiment [2] (fluorescent label: GFP) was less than 9.85 µM throughout.

Consider `CCN(CC)CCOc1ccc(C(=C(Cl)c2ccccc2)c2ccccc2)cc1` [CLOMID], for which the half-maximal inhibitory concentration (IC50) in experiment [1] (fluorescent label: DsRed) is 15.5 µM; in experiment [1] (fluorescent label: GFP), less than 9.85 µM; in experiment [2] (fluorescent label: DsRed), 23.7 µM; in experiment [2] (fluorescent label: GFP), 34.5 µM.

Take `OC(c1cc(C(F)(F)F)nc2c(C(F)(F)F)cccc12)C1CCCCN1` (stereo unspecified) [LARIAM]: the concentration for half-maximal inhibition (IC50) in experiment [1] (fluorescent label: DsRed), in experiment [1] (fluorescent label: GFP), in experiment [2] (fluorescent label: DsRed) and in experiment [2] (fluorescent label: GFP) was less than 9.85 µM throughout.

Regarding `O=C(O[C@@H]1Cc2c(O)cc(O)cc2O[C@@H]1c1cc(O)c(O)c(O)c1)c1cc(O)c(O)c(O)c1` [EPIGALLOCATECHIN-3-MONOGALLATE], the half-inhibitory concentration (IC50) is less than 9.85 µM in experiment [1] (fluorescent label: DsRed), less than 9.85 µM in experiment [1] (fluorescent label: GFP), 45.2 µM in experiment [2] (fluorescent label: DsRed) and 63.3 µM in experiment [2] (fluorescent label: GFP).

For the molecule `Cc1cc(OCCCS(C)(=O)=O)cc(C)c1-c1cccc(COc2ccc3c(c2)OC[C@H]3CC(=O)O)c1` [TAK-875], the IC50 in experiment [1] (fluorescent label: DsRed) was less than 9.85 µM; in experiment [1] (fluorescent label: GFP) it was < 9.85 µM and 12.2 µM; in experiment [2] (fluorescent label: DsRed), < 9.85 µM and 22.5 µM; in experiment [2] (fluorescent label: GFP), 14.9 µM and 29.2 µM.

On to `CC[C@@H](C(=O)O)[C@@H]1O[C@@H]([C@@H](C)[C@H](O)[C@H](C)C(=O)[C@H](CC)[C@H]2O[C@]3(C=C[C@@H](O)[C@]4(CC[C@@](C)([C@H]5CC[C@](O)(CC)[C@H](C)O5)O4)O3)[C@H](C)C[C@@H]2C)[C@@H](C)C[C@@H]1C` [NARASIN], for which the concentration for half-maximal inhibition (IC50) in experiment [1] (fluorescent label: DsRed), in experiment [1] (fluorescent label: GFP), in experiment [2] (fluorescent label: DsRed) and in experiment [2] (fluorescent label: GFP) was less than 9.85 µM in each case.

As to `C[C@@H]1CN(c2c(F)c(N)c3c(=O)c(C(=O)O)cn(C4CC4)c3c2F)C[C@H](C)N1` [ZAGAM], the IC50 in experiment [1] (fluorescent label: DsRed), in experiment [1] (fluorescent label: GFP), in experiment [2] (fluorescent label: DsRed) and in experiment [2] (fluorescent label: GFP) was less than 9.85 µM throughout.

Take `CCn1cc(C(=O)O)c(=O)c2cc3c(cc21)OCO3` [UTIBID]: the 50% inhibitory concentration (IC50) in experiment [1] (fluorescent label: DsRed) is 15.2 µM; in experiment [1] (fluorescent label: GFP), less than 9.85 µM; in experiment [2] (fluorescent label: DsRed), 15.5 µM; in experiment [2] (fluorescent label: GFP) it was 15 µM.

`N[C@@H]1[C@H]2CN(c3nc4c(cc3F)c(=O)c(C(=O)O)cn4-c3ccc(F)cc3F)C[C@@H]12` [Trovafloxacin mesylate]: the IC50 in experiment [1] (fluorescent label: DsRed), in experiment [1] (fluorescent label: GFP), in experiment [2] (fluorescent label: DsRed) and in experiment [2] (fluorescent label: GFP) was less than 9.85 µM each time.

Turning to `CN1CCN(CCCN2c3ccccc3Sc3ccc(C(F)(F)F)cc32)CC1` [STELAZINE], the half-inhibitory concentration (IC50) in experiment [1] (fluorescent label: DsRed) came out at 18.1 µM; in experiment [1] (fluorescent label: GFP), 15.9 µM; in experiment [2] (fluorescent label: DsRed), 55 µM; in experiment [2] (fluorescent label: GFP) it was 55.8 µM.

With `O=C(O)c1ccccc1Nc1cccc(C(F)(F)F)c1` [ARLEF], the IC50 in experiment [1] (fluorescent label: DsRed) was less than 9.85 µM; in experiment [1] (fluorescent label: GFP), 24.8 µM; in experiment [2] (fluorescent label: DsRed), 17.2 µM; in experiment [2] (fluorescent label: GFP) it was 19 µM.

For `COc1ccc(Cc2cnc(N)nc2N)cc1OC` [DIAVERIDINE], the IC50 in experiment [1] (fluorescent label: DsRed) was 27.4 µM; in experiment [1] (fluorescent label: GFP), 26.7 µM; in experiment [2] (fluorescent label: DsRed), 57.3 µM; in experiment [2] (fluorescent label: GFP), 29.9 µM.

With `CC1(C)S[C@@H]2[C@H](NC(=O)[C@H](N)c3ccc(O)cc3)C(=O)N2[C@H]1C(=O)O` [Amoxicillin sodium (Amox)], the concentration for half-maximal inhibition (IC50) in experiment [1] (fluorescent label: DsRed) is less than 9.85 µM; in experiment [1] (fluorescent label: GFP), less than 9.85 µM; in experiment [2] (fluorescent label: DsRed) it was less than 9.85 µM; in experiment [2] (fluorescent label: GFP) it was 15.1 µM.

Take `COC(=O)C1=C(C)NC(C)=C(C(=O)OCCCN2CCC(c3ccccc3)(c3ccccc3)CC2)[C@H]1c1cccc([N+](=O)[O-])c1` [S-(+)-Niguldipine hydrochloride]: the IC50 in experiment [1] (fluorescent label: DsRed) was less than 9.85 µM; in experiment [1] (fluorescent label: GFP) it was less than 9.85 µM; in experiment [2] (fluorescent label: DsRed), less than 9.85 µM; in experiment [2] (fluorescent label: GFP), 11.4 µM.
